Results on one compound are retold here after US9133184B2, “Chromen-2-one derivatives and their use as monoamine neurotransmitter re-uptake inhibitors” (ANIONA APS, priority 2010, dated 2015).

Holding throughout (type): biochemical
Assay [1] relates to dopamine (DA) reuptake in synaptosomes. Nature of the assay: Inhibition of DA reuptake in synaptosomes. To be noted: 3H-DA, read-out: DA-uptake IC50. As to the method:
(§1) Compounds were tested for their ability to inhibit the reuptake of the monoamine neurotransmitters dopamine (DA) noradrenaline (NA) and serotonine (5-HT) in synaptosomes as described in WO 97/16451 (NeuroSearch A/S).
(§2) The test values are given as IC50 (the concentration (μM) of the test substance which inhibits the specific binding of ^3H-DA, ^3H-NA, or ^3H-5-HT by 50%).

In assay [2] the test system is noradrenaline (NA) reuptake in synaptosomes. Nature of the assay: Inhibition of NA reuptake in synaptosomes. To be noted: 3H-NA, read-out: NA-uptake IC50. As to the method:
as §1, §2

The subject of assay [3] is serotonine (5-HT) reuptake in synaptosomes. The experiment in a line: Inhibition of 5-HT reuptake in synaptosomes. To be noted: 3H-5-HT, read-out: 5-HT-uptake IC50. As to the method:
as §1, §2

Structures can show the parent of a compound that is named as a salt.

Broadly, the IC50 is the concentration that inhibits the measured activity by half. For `COc1cc2ccc(O[C@@H]3C[C@H]4CC[C@@H](C3)N4)cc2oc1=O` [Compound 1.1, Exo-7-[(-8-azabicyclo[3.2.1]octan-3-yl)oxy]-3-methoxy-chromen-2-one hydrochloride], the IC50 in assay [1] turned out to be 70 nM; in assay [2] it was 3.8 nM; in assay [3] it was 2.9 nM.
